Experiments:
P2Y purinoceptor 1 = P2Y purinoceptor 1 (Homo sapiens, UniProt P47900); experiment: Displacement of [beta-33P]-2MeS-ADP from human P2Y1 receptor expressed in HEK293 cells after 1 hr by scintillation counting analysis; type: cell-based
[1] = Solubility of the compound at pH 6.5; type: physicochemical; details: buffer
[2] = Lipophilicity, log P of the compound by HPLC analysis; type: physicochemical
[3] = Antiplatelet activity in human platelet-rich plasma assessed as inhibition of ADP-induced platelet aggregation; type: functional, cell-free
[4] = Plasma protein binding in human; type: ADME, cell-free; details: read-out: PPB (converted)
[5] = Antiplatelet activity in human platelet-rich plasma assessed as inhibition of ADP-induced platelet aggregation relative to untreated control; type: functional

P2Y purinoceptor 1, sequence (P47900 whole entry): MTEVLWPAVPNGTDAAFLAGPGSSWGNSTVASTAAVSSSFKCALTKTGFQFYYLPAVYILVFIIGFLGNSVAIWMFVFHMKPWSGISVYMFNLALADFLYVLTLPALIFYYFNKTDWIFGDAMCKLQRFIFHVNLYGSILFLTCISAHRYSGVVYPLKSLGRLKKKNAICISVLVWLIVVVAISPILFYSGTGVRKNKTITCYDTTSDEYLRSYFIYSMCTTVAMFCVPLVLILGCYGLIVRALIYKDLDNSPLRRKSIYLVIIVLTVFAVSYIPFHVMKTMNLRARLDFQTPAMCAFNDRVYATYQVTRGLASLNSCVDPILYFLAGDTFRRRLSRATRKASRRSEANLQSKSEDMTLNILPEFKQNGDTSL

Row | Structure (SMILES) | Ki (P2Y purinoceptor 1) [nM] | also measured
1 | CC(C)(C)c1ccccc1Oc1ncccc1Nc1nsc(-c2ccccc2)n1 | 1500 | 
2 | CC(C)(C)c1ccccc1Oc1ncccc1Nc1noc(-c2ccccc2)n1 | 410 | 
3 | CC(C)(C)c1ccccc1Oc1ncccc1Nc1nnc(-c2ccc3ccccc3c2)s1 | 18 | 
4 | CC(C)(C)c1ccccc1Oc1ncccc1Nc1nnc(-c2ccccn2)s1 | 21 | 
5 | CC(C)(C)c1ccccc1Oc1ncccc1Nc1nnc(-c2ccc(C(F)(F)F)cc2)s1 | 7 | solubility [1]: < 1 µg/mL; logP [2]: 6; IC50 [3]: 7500 nM
6 | CC(C)(C)c1ccccc1Oc1ncccc1Nc1nnc(C(=O)O)s1 | 2900 | 
7 | CCOC(=O)c1nnc(Nc2cccnc2Oc2ccccc2C(C)(C)C)s1 | 90 | 
8 | CC(C)(C)c1ccccc1Oc1ncccc1Nc1nnc(-c2ccc(OC(F)(F)F)cc2)s1 | 10 | 
9 | CC(C)(C)c1ccccc1Oc1ncccc1Nc1nnc(-c2cccnc2)s1 | 340 | 
10 | CC(C)(C)c1ccccc1Oc1ncccc1Nc1nnc(-c2ccccc2)s1 | 11 | logP [2]: 5.01; IC50 [3]: 13000 nM
11 | CC(C)(C)c1ccccc1Oc1ncccc1Nc1cc(-c2ccccc2)on1 | 19 | 
12 | CC(C)(C)c1ccccc1Oc1ncccc1Nc1nncs1 | 2730 | 
13 | CN(C)c1ccc(-c2nnc(Nc3cccnc3Oc3ccccc3C(C)(C)C)s2)cc1 | 27 | 
14 | CC(C)(C)c1ccccc1Oc1ncccc1Nc1nc(-c2ccccc2)ns1 | 25 | 
15 | Cn1nc(Nc2cccnc2Oc2ccccc2C(C)(C)C)cc1-c1ccccc1 | 45 | 
16 | CN(C)c1cccc(-c2nnc(Nc3cccnc3Oc3ccccc3C(C)(C)C)s2)c1 | 55 | 
17 | CC(C)(C)c1ccccc1Oc1ncccc1Nc1ncc(-c2ccccc2)o1 | 59 | 
18 | CN(C)Cc1ccc(-c2nnc(Nc3cccnc3Oc3ccccc3C(C)(C)C)s2)cc1 | 250 | 
19 | CC(C)(C)c1ccccc1Oc1ncccc1NC(=O)Nc1ccc(C(F)(F)F)cc1 | 15 | IC50 [3]: 12600 nM
20 | CN(C)Cc1cccc(-c2nnc(Nc3cccnc3Oc3ccccc3C(C)(C)C)s2)c1 | 670 | 
21 | CC(C)(C)c1ccccc1Oc1ncccc1N=C1NCC(c2ccccc2)O1 (stereo not drawn) | 2500 | 
22 | CC(C)(C)c1ccccc1Oc1ncccc1NC(=O)Nc1ccc(OC(F)(F)F)cc1 |  | fraction unbound [4]: 0.007
23 | CC(C)(C)c1ccccc1Oc1ncccc1Nc1nnc(-c2ccncc2)s1 | 275 | IC50 [3]: 29000 nM
24 | CC(C)(C)c1ccccc1Oc1ncccc1Nc1nnc(-c2ccccc2)o1 | 70 | 
25 | CC(C)(C)c1ccccc1Oc1ncccc1Nc1cc(-c2ccccc2)n[nH]1 | 870 | 
26 | CC(C)(C)c1ccccc1Oc1ncccc1Nc1ncc(-c2ccccc2)s1 | 15 | logP [2]: 5.98
27 | CC(C)(C)c1ccccc1Oc1ncccc1NC(=O)Nc1ccccc1 | 41 | inhibition (INH) [5]: 95%
28 | Cn1nc(-c2ccccc2)cc1Nc1cccnc1Oc1ccccc1C(C)(C)C | > 36000 | 
29 | CC(C)(C)c1ccccc1Oc1ncccc1Nc1cc(-c2ccccc2)no1 | 23 | 

— ChEMBL document CHEMBL2390850, “New azole antagonists with high affinity for the P2Y(1) receptor” (Bioorg Med Chem Lett, 2013)
